Where only a bound is given, the exact number is not on record here.

Chain of ACC2 (O00763 whole entry, species assumed): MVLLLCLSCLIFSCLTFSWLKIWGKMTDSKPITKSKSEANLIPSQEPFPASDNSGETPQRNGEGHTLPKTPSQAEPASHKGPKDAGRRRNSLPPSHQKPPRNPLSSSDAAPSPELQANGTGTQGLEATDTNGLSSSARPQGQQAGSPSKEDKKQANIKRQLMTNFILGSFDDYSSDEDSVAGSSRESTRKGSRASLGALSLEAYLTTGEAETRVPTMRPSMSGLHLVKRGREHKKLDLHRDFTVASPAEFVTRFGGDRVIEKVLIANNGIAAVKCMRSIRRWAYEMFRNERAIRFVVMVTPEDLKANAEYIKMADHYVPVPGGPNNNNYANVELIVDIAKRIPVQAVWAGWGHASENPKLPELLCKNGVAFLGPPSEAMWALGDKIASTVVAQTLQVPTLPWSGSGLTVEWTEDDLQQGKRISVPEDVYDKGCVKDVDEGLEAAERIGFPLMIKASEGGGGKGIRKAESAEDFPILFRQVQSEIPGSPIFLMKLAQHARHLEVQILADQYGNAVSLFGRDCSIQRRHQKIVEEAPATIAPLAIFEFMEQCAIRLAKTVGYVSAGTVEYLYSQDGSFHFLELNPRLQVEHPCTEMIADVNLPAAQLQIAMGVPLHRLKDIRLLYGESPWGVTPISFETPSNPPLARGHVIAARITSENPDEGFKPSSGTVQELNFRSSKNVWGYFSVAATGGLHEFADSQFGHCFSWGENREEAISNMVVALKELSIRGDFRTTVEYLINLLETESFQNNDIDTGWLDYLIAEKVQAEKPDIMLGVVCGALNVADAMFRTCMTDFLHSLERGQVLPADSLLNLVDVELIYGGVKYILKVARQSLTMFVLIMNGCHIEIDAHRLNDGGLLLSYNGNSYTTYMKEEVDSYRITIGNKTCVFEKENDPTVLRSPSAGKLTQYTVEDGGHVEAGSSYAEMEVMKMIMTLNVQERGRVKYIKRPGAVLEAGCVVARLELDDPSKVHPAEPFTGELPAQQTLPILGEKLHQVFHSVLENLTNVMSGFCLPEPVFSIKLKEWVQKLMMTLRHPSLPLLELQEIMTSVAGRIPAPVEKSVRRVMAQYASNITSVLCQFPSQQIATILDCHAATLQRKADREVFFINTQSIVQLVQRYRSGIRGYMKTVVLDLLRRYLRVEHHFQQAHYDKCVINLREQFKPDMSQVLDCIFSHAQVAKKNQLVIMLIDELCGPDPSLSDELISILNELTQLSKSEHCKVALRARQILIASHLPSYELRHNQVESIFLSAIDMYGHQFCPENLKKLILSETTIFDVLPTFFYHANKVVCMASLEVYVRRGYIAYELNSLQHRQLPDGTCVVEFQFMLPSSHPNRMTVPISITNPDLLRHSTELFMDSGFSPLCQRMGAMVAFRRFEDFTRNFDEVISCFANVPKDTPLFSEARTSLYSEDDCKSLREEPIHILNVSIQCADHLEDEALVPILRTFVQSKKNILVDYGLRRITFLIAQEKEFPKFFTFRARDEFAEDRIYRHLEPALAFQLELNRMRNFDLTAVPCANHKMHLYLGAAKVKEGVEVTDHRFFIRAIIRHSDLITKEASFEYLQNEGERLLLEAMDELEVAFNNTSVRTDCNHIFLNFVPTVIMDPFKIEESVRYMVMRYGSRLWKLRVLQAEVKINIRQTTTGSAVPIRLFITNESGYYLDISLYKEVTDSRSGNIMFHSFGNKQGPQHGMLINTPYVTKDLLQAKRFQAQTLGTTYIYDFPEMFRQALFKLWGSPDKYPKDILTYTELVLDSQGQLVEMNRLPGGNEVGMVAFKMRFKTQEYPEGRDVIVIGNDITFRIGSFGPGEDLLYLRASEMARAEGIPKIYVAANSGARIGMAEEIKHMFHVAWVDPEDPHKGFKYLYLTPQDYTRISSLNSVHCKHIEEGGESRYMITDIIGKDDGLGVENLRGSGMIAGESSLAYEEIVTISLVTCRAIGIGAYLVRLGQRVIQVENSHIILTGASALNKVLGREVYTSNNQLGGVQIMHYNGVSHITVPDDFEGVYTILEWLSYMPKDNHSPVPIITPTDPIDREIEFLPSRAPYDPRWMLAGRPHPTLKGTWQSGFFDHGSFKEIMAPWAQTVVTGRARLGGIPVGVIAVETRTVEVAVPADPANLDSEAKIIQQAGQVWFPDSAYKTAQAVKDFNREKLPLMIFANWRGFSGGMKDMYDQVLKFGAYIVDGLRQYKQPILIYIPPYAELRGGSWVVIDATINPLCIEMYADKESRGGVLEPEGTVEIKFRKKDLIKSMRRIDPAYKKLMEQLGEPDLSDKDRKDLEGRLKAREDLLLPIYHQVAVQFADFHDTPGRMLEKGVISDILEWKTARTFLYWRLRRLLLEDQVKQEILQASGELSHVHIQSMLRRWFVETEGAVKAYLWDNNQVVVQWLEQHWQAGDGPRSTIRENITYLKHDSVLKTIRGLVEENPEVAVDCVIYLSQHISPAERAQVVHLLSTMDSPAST

The assay has as its target ACC2 (Homo sapiens, UniProt O00763). In words: In vitro ACC2 inhibition assay (ADP-Glo). It is filed as biochemical. The settings on record: read-out: ACC2. The method, then: An exemplary procedure for the in vitro ACC inhibition assay, which can be used to determine the inhibitory action of compounds of the invention toward either ACC1 or ACC2, follows. The ADP-Glo™ Kinase Assay kit from Promega was used. The ADP-Glo™ Kinase Assay is a luminescent ADP detection assay to measure enzymatic activity by quantifying the amount of ADP produced during an enzyme reaction. The assay is performed in two steps; first, after the enzyme reaction, an equal volume of ADP-Glo™ Reagent is added to terminate the reaction and deplete the remaining ATP. Second, the Kinase Detection Reagent is added to simultaneously convert ADP to ATP and allow the newly synthesized ATP to be measured using a luciferase/luciferin reaction. Luminescence can be correlated to ADP concentrations by using an ATP-to-ADP conversion curve. The detailed procedure is as follows. 50 μL of the compound being tested (600 uM in DMSO) was added to a 384-well dilution plate. The compound was diluted 1:3 in succession in DMSO for each row for 11 wells. 0.5 μL ACC2 working solution was added to 384-well white Optiplate assay plate. 0.5 μL diluted compound solution in each column from step 2 to assay plate, each row containing 2 replicates. […] The plates were incubated at room temperature for 15 minutes. 5 μL substrate working solution was added to each well to initiate reaction. […] Plates were incubated at room temperature for 60 minutes. 10 μL ADP glo reagent was added. Plates were incubated at room temperature for 40 minutes. 20 μL kinase detection reagent was added.
Data for each concentration, as well as the positive and negative controls were averaged, and the standard deviation calculated. Percent inhibition was calculated by the formula: 100× (average negative control−compound)/(average negative control−average positive control). The IC50 for each compound was calculated by fitting the data with a non-linear regression equation: Y=Bottom+(Top-Bottom)/(1+10^((Log IC50−X)*HillSlope)), where X is the log of compound concentration and Y is percent inhibition.
The compound numbers correspond to the compound numbers in Table 1.
(In ADP-Glo the light output rises with the ADP produced.)
Consider `Cc1c(-c2ncco2)sc2c1c(=O)n(C(C)(C)C(=O)O)c(=O)n2C[C@H](OCCO)c1ccccc1` [I-169, 2-[1-[(2R)-2-(2-hydroxyethoxy)-2-phenylethyl]-5-methyl-6-(1,3-oxazol-2-yl)-2,4-dioxo-1H,2H,3H,4H-thieno[2,3-d]pyrimidin-3-yl]-2-methylpropanoic acid], for which the IC50 is below 0.1 µM.

With `CCOC(=O)c1sc2c(c1C)c(=O)n(C[C@@H](C)O)c(=O)n2CCc1ccccc1` [I-81, ethyl 3-[(2R)-2-hydroxypropyl]-5-methyl-2,4-dioxo-1-(2-phenylethyl)-1H,2H,3H,4H-thieno[2,3-d]pyrimidine-6-carboxylate], the IC50 lay within 5 to 20 µM.

With `O=C(O)Cn1c(=O)c2c3c(sc2n(CC(=O)c2ccccc2)c1=O)CCCC3` [I-2], the IC50 is above 50 µM.

Turning to `CCOC(=O)c1sc2c(c1C)c(=O)n(C(C)(C)C(=O)O)c(=O)n2C[C@@H](O)c1ccccc1` [I-102, 2-[6-(ethoxycarbonyl)-1-[(2S)-2-hydroxy-2-phenylethyl]-5-methyl-2,4-dioxo-1H,2H,3H,4H-thieno[2,3-d]pyrimidin-3-yl]-2-methylpropanoic acid], the IC50 fell in the range of 5 to 20 µM.

As for `CCCn1c(=O)c2c(C)c(C(=O)OCC)sc2n(CCc2ccccc2)c1=O` [I-9, ethyl 5-methyl-2,4-dioxo-1-(2-phenylethyl)-3-propyl-1H,2H,3H,4H-thieno[2,3-d]pyrimidine-6-carboxylate], the IC50 is above 50 µM.

Turning to `CCOC(=O)c1sc2c(c1C)c(=O)n(CC(=O)NCCO)c(=O)n2CCc1ccccc1` [I-48, ethyl 3-[[(2-hydroxyethyl)carbamoyl]methyl]-5-methyl-2,4-dioxo-1-(2-phenylethyl)-1H,2H,3H,4H-thieno[2,3-d]pyrimidine-6-carboxylate], the IC50 lay in the range of 5 to 20 µM.

For the compound `CCOC(=O)c1sc2c(c1C)c(=O)n(CC(=O)O)c(=O)n2CCc1ccccc1Br` [I-54, 2-[1-[2-(2-bromophenyl)ethyl]-6-(ethoxycarbonyl)-5-methyl-2,4-dioxo-1H,2H,3H,4H-thieno[2,3-d]pyrimidin-3-yl]acetic acid], the IC50 lay within 5 to 20 µM.

With `Cc1c(-c2ncco2)sc2c1c(=O)n(C(C)(C)C(=O)O)c(=O)n2CCOC1CCOCC1` [I-233, 2-methyl-2-[5-methyl-1-[2-(oxan-4-yloxy)ethyl]-6-(1,3-oxazol-2-yl)-2,4-dioxo-1H,2H,3H,4H-thieno[2,3-d]pyrimidin-3-yl]propanoic acid], the IC50 is below 5 µM.

In the case of `[2H]c1ccc(CCn2c(=O)n(CC(=O)O)c(=O)c3c(C)c(C(=O)OCC)sc32)cc1` [I-66, 2-(1-(4-deuterophenethyl)-6-(ethoxycarbonyl)-5-methyl-2,4-doxo-1,2-dihydrothieno[2,3-d]pyrimidin-3(4H)-yl)acetic acid], the IC50 was below 5 µM.

Consider `Cc1c(-c2nccs2)sc2c1c(=O)n(C(C)(C)C(=O)O)c(=O)n2C[C@H](OC(C)C)c1ccccc1` [I-141, 2-methyl-2-[5-methyl-2,4-dioxo-1-[(2R)-2-phenyl-2-(propan-2-yloxy)ethyl]-6-(1,3-thiazol-2-yl)-1H,2H,3H,4H-thieno[2,3-d]pyrimidin-3-yl]propanoic acid], for which the IC50 was below 5 µM.

Turning to `Cc1c(-c2ncco2)sc2c1c(=O)n(C(C)(C)C(=O)O)c(=O)n2C[C@H](O[C@H]1CC[C@@](C)(O)CC1)c1ccccc1` [I-168, 2-(1-((R)-2-(((1s,4S)-4-hydroxy-4-methylcyclohexyl)oxy)-2-phenylethyl)-5-methyl-6-(oxazol-2-yl)-2,4-doxo-1,2-dihydrothieno[2,3-d]pyrimidin-3(4H)-yl)-2-methylpropanoic acid], the IC50 was below 1 µM.

Turning to `CCOC(=O)c1sc2c(c1C)c(=O)n(CC(=O)O)c(=O)n2CCc1ccc(I)cc1` [I-53, 2-[6-(ethoxycarbonyl)-1-[2-(4-iodophenyl)ethyl]-5-methyl-2,4-dioxo-1H,2H,3H,4H-thieno[2,3-d]pyrimidin-3-yl]acetic acid], the IC50 was in the range of 5 to 20 µM.

Regarding `Cc1c(-c2ncco2)sc2c1c(=O)n(C(C)(C)C(=O)O)c(=O)n2C[C@H](O[C@@H](C)CO)c1ccccc1` [I-185, 2-[1-[(2R)-2-[[(2S)-1-hydroxypropan-2-yl]oxy]-2-phenylethyl]-5-methyl-6-(1,3-oxazol-2-yl)-2,4-dioxo-1H,2H,3H,4H-thieno[2,3-d]pyrimidin-3-yl]-2-methylpropanoic acid], the IC50 was below 1 µM.

As for `CCOC(=O)c1sc2c(c1C)c(=O)n(CCO)c(=O)n2CCc1ccc(F)cc1` [I-26, ethyl 1-[2-(4-fluorophenyl)ethyll]-3-(2-hydroxyethyl)-5-methyl-2,4-dioxo-1H,2H,3H,4H-thieno[2,3-d]pyrimidine-6-carboxylate], the IC50 is 5 to 20 µM.

`CNC(=O)c1sc2c(c1C)c(=O)n(CCO)c(=O)n2CCc1ccccc1` [I-27]: the IC50 was above 50 µM.

For the compound `COc1ccccc1[C@H](Cn1c(=O)n(C(C)(C)C(=O)NCCO)c(=O)c2c(C)c(-c3ncco3)sc21)OC(C)C` [I-257, N-(2-hydroxyethyl)-2-[1-[(2R)-2-(2-methoxyphenyl)-2-(propan-2-yloxy)ethyl]-5-methyl-6-(1,3-oxazol-2-yl)-2,4-dioxo-1H,2H,3H,4H-thieno[2,3-d]pyrimidin-3-yl]-2-methylpropanamide], the IC50 was below 5 µM.

Turning to `Cc1c(-c2ncco2)sc2c1c(=O)n(C(C)(C)C(=O)O)c(=O)n2C[C@H](OC1COC1)c1ccccc1` [I-182, 2-methyl-2-[5-methyl-6-(1,3-oxazol-2-yl)-1-[(2R)-2-(oxetan-3-yloxy)-2-phenylethyl]-2,4-dioxo-1H,2H,3H,4H-thieno[2,3-d]pyrimidin-3-yl]propanoic acid], the IC50 fell in the range of 20 to 50 µM.

Consider `CCOC(=O)c1sc2c(c1C)c(=O)n(CCO)c(=O)n2CCC1CCCCC1` [I-28], for which the IC50 is above 50 µM.

On to `Cc1c(-c2ncco2)sc2c1c(=O)n(Cc1nn[nH]n1)c(=O)n2C[C@H](OC(C)C)c1ccccc1` [I-153, 5-methyl-6-(1,3-oxazol-2-yl)-1-[(2R)-2-phenyl-2-(propan-2-yloxy)ethyl]-3-(1H-1,2,3,4-tetrazol-5-ylmethyl)-1H,2H,3H,4H-thieno[2,3-d]pyrimidine-2,4-dione], for which the IC50 was below 1 µM.

With `CCOC(=O)c1sc2c(c1C)c(=O)n(CC(C)(C)O)c(=O)n2CCc1ccccc1` [I-79, ethyl 3-(2-hydroxy-2-methylpropyl)-5-methyl-2,4-dioxo-1-(2-phenylethyl)-1H,2H,3H,4H-thieno[2,3-d]pyrimidine-6-carboxylate], the IC50 lay in the range of 5 to 20 µM.

As for `CCOC(=O)c1sc2c(c1C)c(=O)n(C(C)(C)C(=O)O)c(=O)n2C[C@@H](OC(C)C)c1ccc(I)cc1` [I-126], the IC50 lay in the range of 20 to 50 µM.

In the case of `CCOC(=O)c1sc2c(c1C)c(=O)n(C(C)(C)C(=O)O)c(=O)n2C[C@H](OC(C)C)c1ccc(I)cc1` [I-129, (R)-2-(6-(ethoxycarbonyl)-1-(2-(4-iodophenyl)-2-isopropoxyethyl)-5-methyl-2,4-dioxo-1,2-dihydrothieno[2,3-d]pyrimidin-3(4H)-yl)-2-methylpropanoic acid], the IC50 lay within 5 to 20 µM.

Take `CCOC(=O)c1sc2c(c1C)c(=O)n(CCO)c(=O)n2Cc1cccc2ccccc12` [I-15]: the IC50 was above 50 µM.

On to `CCOC(=O)c1sc2c(c1C)c(=O)n(C(C)(C)C(N)=O)c(=O)n2C[C@@H](OC(C)C)c1ccccc1` [I-114, ethyl 3-(1-carbamoyl-1-methylethyl)-5-methyl-2,4-dioxo-1-[(2S)-2-phenyl-2-(propan-2-yloxy)ethyl]-1H,2H,3H,4H-thieno[2,3-d]pyrimidine-6-carboxylate], for which the IC50 is 20 to 50 µM.

Turning to `CCOC(=O)c1sc2c(c1C)c(=O)n([C@H](C)C(=O)O)c(=O)n2CCc1ccccc1` [I-76, (2R)-2-[6-(ethoxycarbonyl)-5-methyl-2,4-dioxo-1-(2-phenylethyl)-1H,2H,3H,4H-thieno[2,3-d]pyrimidin-3-yl]propanoic acid], the IC50 was below 5 µM.

With `Cc1c(-c2ncco2)sc2c1c(=O)n(C(C)(C)C(=O)O)c(=O)n2C[C@H](O[C@H]1CCCC[C@@H]1C)c1ccccc1` [I-152, 2-methyl-2-[5-methyl-1-[(2R)-2-[[(1S,2S)-2-methylcyclohexyl]oxy]-2-phenylethyl]-6-(1,3-oxazol-2-yl)-2,4-dioxo-1H,2H,3H,4H-thieno[2,3-d]pyrimidin-3-yl]propanoic acid], the IC50 was below 1 µM.

Regarding `Cc1c(-c2ncco2)sc2c1c(=O)n(C(C)(C)C(=O)O)c(=O)n2C[C@H](O[C@H]1CCC[C@H](O)C1)c1ccccc1` [I-172, 2-(1-((R)-2-(((1S,3S)-3-hydroxycyclohexyl)oxy)-2-phenylethyl)-5-methyl-6-(oxazol-2-yl)-2,4-dioxo-1,2-dihydrothieno[2,3-d]pyrimidin-3(4H)-yl)-2-methylpropanoic acid], the IC50 was below 1 µM.

Regarding `Cc1csc2c1c(=O)n(CCO)c(=O)n2CCc1ccccc1` [I-58], the IC50 was above 50 µM.

(Values after patent publication US9453026B2, “ACC inhibitors and uses thereof” (Gilead Apollo, Inc., priority 2011, dated 2016).)
